Read-outs that look alike come from different tables or passages of the source.
What was measured:
[1] = biological target: T1, lysyl oxidase (Bos taurus, UniProt P33072); test: Lysyl oxidase peroxidase-coupled fluorescence assay of n-hexylamine oxidation; assay type: biochemical, bovine
T1 construct: Lysyl oxidase was purified from bovine aorta as previously described; from tissue; host or cells: bovine aorta
T1 sequence (P33072 170-418): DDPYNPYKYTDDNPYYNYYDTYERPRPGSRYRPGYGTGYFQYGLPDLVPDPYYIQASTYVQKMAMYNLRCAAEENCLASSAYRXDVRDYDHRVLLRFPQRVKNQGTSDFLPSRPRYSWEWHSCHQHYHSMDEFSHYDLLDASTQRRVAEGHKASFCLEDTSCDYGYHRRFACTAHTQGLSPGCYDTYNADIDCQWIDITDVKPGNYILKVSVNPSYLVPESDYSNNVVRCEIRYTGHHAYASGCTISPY
Description: Lysyl oxidase was purified from bovine aorta as previously described. [Williams, M. A. and H. M. Kagan, Anal. Biochem. 113:336 (1985)].
(§1) The purified lysyl oxidase enzyme was also assayed against alkyl monoamines and alkyl diamines using the reported peroxidase-coupled fluorescence method at 55° C. [Trackman et al., Anal. Biochem. 113:336-342 (1981)]. The reaction mixtures contained 40 ug horseradish peroxidase, 0.7 mM homovanillic acid, 1.2M urea, 0.02M potassium phosphate/borate buffer, at pH 8 (or at varying values of pH as indicated) in a total volume of 2 ml. Assay solutions were adjusted to an ionic strength of 0.04 using potassium chloride. Lysyl oxidase was then added to initiate the reaction. Fluorescence was continuously monitored at an excitation wavelength of 315 nm and an emission wavelength of 425 nm. The enzyme-dependent production of hydrogen peroxide was quantified by reference to standard plots relating nanomoles of hydrogen peroxide added to fluorescence units. […] Kinetic constants were derived from initial rate assay data by using the Fortan program of Cleland [Meth. Enzymol. 63:103-138 (1979)] which determines Vmax and Km values from data of Michaelis-Menten experiments using a least squares fitting procedure applied to the Michaelis-Menten equation.
The pH-dependency of the Vmax for the oxidation of a series of diamines and monoamine substrates by lysyl oxidase was first explored.
(§2) Accordingly cis and trans isomers of DACH were used to probe this possibility.

[2] = biological target: T1, lysyl oxidase; test: Release of 3H+ from [1,2-3H]DACH by lysyl oxidase; assay type: biochemical, bovine; conditions: for Ratio ^3 H^+/Oxidant / ^3 H^+ Released: 1 mM [^3 H]DACH; for ^3 H^+ Released: pH 8, 37°C, maximum level
Description: ^a/ The indicated amounts of PQQ or functional active sites of lysyl
oxidase were incubated with [^3 H]DACH (1 mM; 0.13 mCi/mmole) in 50 m
sodium borate, pH 8, at 37°C. and aliquots of the incubation
mixture were removed at intervals, distilled in vacuo and the isolated
[^3 H]H2 O was quantified by liquid scintillation spectrometry.
The values shown are the maximum levels accumulated in these assays and
are corrected for minor background
effects in the absence of oxidant.
Toward similar ends [1,2-^3 H]DACH was synthesized and used to determine whether the reaction of this diamine with limiting quantities of free PQQ or of lysyl oxidase would result in the release of ^3 H^+ --a result to be expected if carbon 1 and/or carbon 2 positions of cis-DACH were oxidized in these reaction mixtures. As provided by Table E2, approximately 2 moles of ^3 H^+ were released per mole of each limiting reactant; with a maximum of 2.30 moles of ^3 H^+ released per mole of PQQ and a maximum of 1.88 moles of ^3 H^+ released per mole of functional active site in lysyl oxidase. While the synthetic, tritiated product used in these studies consisted of a mixture of the cis and trans isomers, the concentration of [^3 H]DACH incubated with the lysyl oxidase enzyme was sufficiently low to restrict the reaction primarily to the cis isomer--based upon the previous assessment of the relative potency of these compounds as inhibitors of lysyl oxidase or as perturbants of the spectrum of PQQ.

[3] = biological target: T1, lysyl oxidase; test: Irreversible, time-dependent inactivation of lysyl oxidase (preincubation, then dialysis or dilution into the assay); assay type: biochemical, bovine; conditions: for rate of inactivation under anaerobic conditions: anaerobic / nitrogen-purged
Description: as §2
In addition, the time-dependency for the expression of irreversible inhibition was assessed by initially preincubating lysyl oxidase at 37° in the presence or absence of various concentrations of cis-DACH; and then diluting aliquots of these individual reaction mixtures into peroxidase-coupled assays for n-hexylamine oxidation - thereby reducing the cis-DACH concentrations to non-inhibitory levels within the lysyl oxidase assays. […] The possibility that the inactivation derived from the removal of the metal ion cofactor of the enzyme by the cyclic diamine was then assessed by atomic absorption spectroscopy.

[4] = biological target: T1, lysyl oxidase; test: Protein-bound copper of lysyl oxidase by atomic absorption spectroscopy; design: species or system bovine; conditions: 1 mM, then dialyzed against metal-free buffer
Description: In addition, the time-dependency for the expression of irreversible inhibition was assessed by initially preincubating lysyl oxidase at 37° in the presence or absence of various concentrations of cis-DACH; and then diluting aliquots of these individual reaction mixtures into peroxidase-coupled assays for n-hexylamine oxidation - thereby reducing the cis-DACH concentrations to non-inhibitory levels within the lysyl oxidase assays. […] This is illustrated by FIG. 4. […] The possibility that the inactivation derived from the removal of the metal ion cofactor of the enzyme by the cyclic diamine was then assessed by atomic absorption spectroscopy. This method of analysis yielded the same values for protein-bound copper in aliquots of purified lysyl oxidase which had been incubated in either the presence or absence of 1 mM cis-DACH and then dialyzed extensively against metal-free buffer.

[5] = biological target: T1, lysyl oxidase; test: Perturbation of the absorption spectrum of lysyl oxidase; design: species or system bovine
Description: Absorption spectra were recorded in 1 cm cuvettes with a Hewlett Packard Diode Array spectrophotometer, with temperatures controlled by circulating water through the cuvette holder. Mixtures were made anaerobic by purging buffers and stock solutions in rubber-capped tubes with high purity nitrogen for 15 min, and then injecting aliquots of the solutions into a 1 cm semi-micro cuvette fitted with a rubber septum and flushed with nitrogen before addition of reagents. Once in the capped cuvette, each solution was further exposed to a stream of nitrogen passed over the surface of the solution and out of the capped cuvette through 21 guage needles for 5 min. just prior to spectral recording. Each perturbation described was reproducible in three or more trials.
Increased absorption occurs in accordance with an increase in optical density occurring in the region of 250 nm; a broad peak also develops with a maximum absorbance at 350-355 nm upon incubation of 47 uM cis-DACH with 4.25 uM of functional active sites in lysyl oxidase as shown in FIG. 6B. The absorption peak at 350-355 nm correlates quite well with a peak generated at the same position in the spectrum of PQQ by its interaction with cis-DACH.

[6] = biological target: T1, lysyl oxidase; test: Release of H2O2 on oxidation of cis-DACH by lysyl oxidase; assay type: biochemical, bovine; conditions: for Ratio H2O2/Oxidant / H2O2 Released: 1 mM cis-DACH; for H2O2 Released: maximal release
Description: as §1
In view of the apparent inhibiting effect of anaerobic conditions on the induction by cis-DACH of changes in the spectra of PQQ and lysyl oxidase, the possibility was evaluated that oxidation of the diamine substrate analogue may be involved in the development of irreversible inhibition of lysyl oxidase. […] This argues against significant catalytic turnover with the cyclic diamine. Nevertheless, as illustrated by FIG. 7, the development of irreversible inhibition was strongly dependent upon the presence of oxygen since the rate of inactivation was negligible under anaerobic conditions.
Toward that end, evidence was sought for the release of H2 O2 upon the reaction of cis-DACH with limiting amounts of PQQ or of relatively large quantities (although limiting relative to cis-DACH) of pure lysyl oxidase. As given by Table E1, hydrogen peroxide formation was seen under these conditions with the maximum levels of H2 O2 formed essentially equal to the amount of the limiting reactant in both cases, i.e., free PQQ or lysyl oxidase, respectively.
^a/ Hydrogen peroxide as assayed in the peroxidasecoupled fluorescenc
assay using 1 mM cisDACH as the sole source of amine substrate and
containing lysyl oxidase or PQQ at the indicated amounts. Incubations wer
continued until the release of H2 O2 was maximal in each case.
The quantity of lysyl oxidase used is expressed in the Table in terms of
functional active site content. The concentration of PQQ was determined
using 19,122 as the molar extinction coefficent.

[7] = lysyl oxidase as oxidant, mean of 3 amounts
[8] = n-hexylamine substrate, competitive, read-out: KI, competitive inhibition of lysyl oxidase activity against n-hexylamine

N[C@@H]1CCCC[C@H]1N (relative stereo) [trans-DACH, 1,2-Diaminocyclohexane, reference compound]
IC50 ([1]; n-hexylamine oxidation, extrapolated, read-out: (extrapolated) I50 in assays of n-hexylamine oxidation): > 10000 µM
fold less inhibitory than cis-DACH ([1]; n-hexylamine oxidation, relative to cis-DACH): at least 10,000 fold

[3H]C1(N)CCCCC1([3H])N (centres unmarked) [[1,2-^3 H]DACH, [1,2-^3 H]-1,2-diaminocyclohexane]
Ratio ^3 H^+/Oxidant ([2]; 0.50 nanomoles lysyl oxidase active sites): 1.96
^3 H^+ Released ([2]; 0.50 nanomoles lysyl oxidase functional active sites): 0.98 Nanomoles
Ratio ^3 H^+/Oxidant ([2]; 1.24 nanomoles lysyl oxidase active sites): 1.80
^3 H^+ Released ([2]; 1.24 nanomoles lysyl oxidase functional active sites): 2.23 Nanomoles
Ratio ^3 H^+/Oxidant ([2]; 3.72 nanomoles lysyl oxidase active sites): 1.87
^3 H^+ Released ([2]; 3.72 nanomoles lysyl oxidase functional active sites): 6.95 Nanomoles
^3 H^+ released per mole of functional active site in lysyl oxidase ([2]; limiting lysyl oxidase): 1.88 moles of ^3 H^+ released per mole of functional active site
Ratio ^3 H^+/Oxidant, mean [2, 7]: 1.88 ± 0.07

NCCN [EDA, Ethylenediamine]
Ki [1, 8]: 2 µM
rate of inactivation under anaerobic conditions [3]: markedly reduced

N[C@@H]1CCCC[C@@H]1N [cis-DACH, 1,2-Diaminocyclohexane]
removal of copper from the active site [4]: did not remove copper
perturbation of the lysyl oxidase spectrum ([5]; aerobic, 47 uM cis-DACH with 4.25 uM functional active sites): perturbed
perturbation of the lysyl oxidase spectrum under anaerobic conditions ([5]; anaerobic): not altered significantly
Ratio H2O2/Oxidant ([6]; 0.71 nanomoles lysyl oxidase active sites): 1.40
H2O2 Released ([6]; 0.71 nanomoles lysyl oxidase functional active sites): 1.0 nmol
Ratio H2O2/Oxidant ([6]; 1.78 nanomoles lysyl oxidase active sites): 0.96
H2O2 Released ([6]; 1.78 nanomoles lysyl oxidase functional active sites): 1.70 nmol
formation of H2O2 with catalytic quantities of lysyl oxidase ([6]; 2-4 ug lysyl oxidase, limit of sensitivity ca. 1 nanomole of H2O2): not detectable
Ratio H2O2/Oxidant ([6]; 2.20 nanomoles lysyl oxidase active sites): 0.69
H2O2 Released ([6]; 2.20 nanomoles lysyl oxidase functional active sites): 1.52 nmol
Ratio H2O2/Oxidant, mean [6, 7]: 1.02 ± 0.29
Ki ([1]; as restated in the summary, read-out: KI): 0.38 µM
IC50 ([1]; n-hexylamine oxidation, read-out: I50 in assays of n-hexylamine oxidation): 1.5 µM
Ki [1, 8]: 0.38 µM
rate of inactivation under anaerobic conditions [3]: negligible
reversibility of inhibition ([3]; enzyme preincubated with 0.05M cis-DACH at 37° for 15 min, then dialyzed): irreversible
kinact ([3]; preincubation at 37°, secondary reciprocal plot, read-out: limiting apparent first order rate constant for inactivation, Kinact (converted)): 0.3 s⁻¹
